What all share (type): cell-based, Human Cytomegalovirus
Assay [1] has as its system HCMV AD169 virus. The experiment in a line: HCMV AD169 CPE assay (MTS dye reduction, MRC-5 cells). The conditions noted are these: Human betaherpesvirus 5, AD169, MRC5, 216 h, 9 days, read-out: EC50 (nM) Example A. The procedure: HCMV AD169 CPE Assay This assay format is a CPE (Cytopathic effect)-based assay that determines the ability of compounds to protect cells against infection with a dye reduction assay (MTS of CellTiter 96® AQueous Non-Radioactive Cell Proliferation Assay from Promega). The conversion of MTS into aqueous, soluble formazan is performed by dehydrogenase enzymes found in metabolically active cells. The quantity of formazan product determined by absorbance at 490 nm is directly proportional to the number of living cells in culture. [table] Serial dilutions of the DMSO stock compound solution are performed using DMSO in columns 2-11 and 14-23. DMSO alone is present in columns 1, 12, 13 and 24. Four μL of the DMSO serial dilutions is obtained and diluted using 96 μL of D-MEM 5% FBS culture medium to obtain 4% DMSO (7×). To perform the assay, 10 μL of the freshly prepared 4% DMSO serial dilution plate is added to the assay plate containing 40 μL of MRC-5 cells plated the day before (10000 cells per well). Twenty μL of diluted virus is added to columns 2-12 and 14-24 and only D-MEM 5% FBS medium to uninfected control (columns 1 and 13) for a final DMSO concentration of 0.6%. The virus dilution is based on the amount of virus required to obtain a Signal-to-Background of 3-4 (generally between 0.1 and 1 μL of virus stock per well or MOI=0.05). The assay plates are incubated at 37° C. with 5% CO2 for 9 days in order to obtain 100% CPE in infected control without compound (columns 12 and 24). Ten μL of freshly mixed room temperature MTS/PMS (1:20 v/v) is added and the plates are incubated at 37° C. with 5% CO2 for 4-5 h (until signal saturation at 2.3 in the 100% CPE control). The plates are sealed with TopSeal for biosafety and read on the Envision plate reader (Perkin-Elmer) or equivalent at OD 492 nm.

Assay [2] relates to HCMV AD169-Bac-Luc2 US2-US6 clone #26 virus. Put plainly: HCMV AD169-Bac luciferase assay (MRC-5 cells). The conditions noted are these: Human betaherpesvirus 5, AD169, MRC5, 72 h, read-out: EC50 (nM) Example B. An excerpt: HCMV AD169-Bac Luciferase Assay
This assay format is a luciferase reporter-based assay that determines the ability of compounds to inhibit the infection by detecting a luciferase signal decrease following the addition of BIGlo substrate (preparation indicated below) directly in the culture media. Mono-oxygenation of luciferin is catalyzed by luciferase in the presence of Mg2+, ATP and molecular oxygen. The generation of oxyluciferin is a luminescent reaction that can be detected with the proper platereader. Human Cytomegalovirus AD169-Bac is obtained from Dr. Thomas Shenk at Princeton University (reference paper Yu et al. 2002—J. Virol. 76 (5):2316-2328, herein incorporated by reference) and modified by recombineering to introduce a humanized firefly luciferase gene (Luc2) at the US2-US6 position in the HCMV genome. The virus is expanded in MRC-5 cells.
Serial dilutions of the DMSO stock compound solution are performed using DMSO in columns 2-11 and 14-23. DMSO alone is present in columns 1, 12, 13 and 24. Four μL of the DMSO serial dilutions is obtained and diluted using 96 μL of D-MEM 5% FBS culture medium to obtain 4% DMSO (7×).
To perform the assay, 7 μL of the freshly prepared 4% DMSO serial dilution plate is added to the assay plate containing 25 μL of MRC-5 cells plated the day before (10000 cells per well). Seventeen μL of diluted virus is added to columns 2-12 and 14-24 and only D-MEM 5% FBS medium to uninfected control (columns 1 and 13) for a final DMSO concentration of 0.6%. The virus dilution is based on the amount of virus required to obtain the highest luciferase signal possible without CPE (generally between 0.05 and 1 μL of virus stock per well or MOI=0.02). The assay plates are incubated at 37° C. with 5% CO2 for 3 days. Fifteen μL of room temperature BIGlo buffer is added to room temperature assay plates also incubated at room temperature for 15 minutes. The plates are sealed with TopSeal for biosafety and the luminescence signal is read on the TopCount plate reader (Perkin-Elmer) or equivalent.

Assay [3] has as its system HCMV AD169 virus. Put plainly: HCMV AD169 qPCR 96-well assay (viral DNA replication, MRC-5 cells). To be noted: Human betaherpesvirus 5, AD169, MRC5, 72 h, qPCR of viral DNA, 3 days, read-out: EC50 (nM) Example C. As to the method: HCMV AD169 qPCR 96-Well Assay
The hCMV quantitative PCR (qPCR) assay evaluates the ability of a compound to inhibit, directly or indirectly, the replication of hCMV viral DNA during the first 72 h following the infection. Compounds that inhibit either entry or the hCMV polymerase are active in this assay. Compounds are tested in the qPCR assay in 96-well plates, using a 9-point dose-response with 8 compounds for each 96-well plate. The assay was adapted from the method described by Schnepf et al., Rapid determination of antiviral drug susceptibility of human cytomegalovirus by real-time PCR, Antiviral Research 81 (2009) 64-67. […]
For orientation: Real-time PCR tracks product formation cycle by cycle.

For orientation: EC50 means the concentration that produces a half-maximal response. Consider `O=C(Cc1ccc(NC(=O)c2cscn2)nc1)Nc1cc(C(F)(F)F)cc(C(F)(F)F)c1` [Compound 1131], for which the 50% effective concentration (EC50) in assay [1] came to 1520 nM; in assay [2], 143 nM; in assay [3] it was 220 nM.

With `N#Cc1cccc(CC(=O)Nc2nc3ccc(NC(=O)c4cscn4)cc3s2)c1` [Compound 1098], the EC50 in assay [2] worked out at 74 nM.

In the case of `O=C(Cn1ccc(NC(=O)c2cscn2)cc1=O)Nc1cccc(C(F)(F)F)c1` [Compound 1148], in assay [2], the EC50 was determined as 658 nM.

Take `O=C(Cc1ccc(NC(=O)c2cscn2)cc1)Nc1cc(C(F)(F)F)cc(C(F)(F)F)c1` [Compound 1122]: the EC50 came out at 142 nM in assay [1] and 110 nM in assay [2].

Turning to `O=C(Cc1ccc(NC(=O)c2cscn2)cn1)Nc1cc(C(F)(F)F)cc(C(F)(F)F)c1` [Compound 1143], the EC50 in assay [1] is 555 nM; in assay [2], 51 nM.

On to `O=C(Cc1cccc(C(F)(F)F)c1)Nc1ccc2nc(NC(=O)c3cscn3)sc2c1` [Compound 1158], for which the figures for the EC50 in assay [1], in assay [2] and in assay [3] were 250 nM, 45 nM and 180 nM, respectively.

Turning to `CC(C(=O)Nc1nc2ccc(NC(=O)c3cscn3)cc2[nH]1)c1cccc(Cl)c1` (stereo not shown) [Compound 1037], in assay [2], the EC50 worked out at 69 nM.

On to `O=C(Cc1cccc(C(F)(F)F)c1)Nc1ccc(NC(=O)c2cscn2)nc1` [Compound 1027], for which the concentration for a half-maximal effect (EC50) in assay [1] turned out to be 2800 nM.

Consider `CC(C(=O)Nc1nc2ccc(NC(=O)c3cscn3)cc2n1C)c1cccc(Cl)c1` (stereo not shown) [Compound 1137], for which the half-maximal effective concentration (EC50) in assay [1] came out at 1700 nM; in assay [2] it was 1600 nM.

For the origin of these results see patent US9334249B2, “Inhibitors of cytomegalovirus” (Boehringer Ingelheim International GmbH, priority 2012, dated 2016).
